Data as given in patent US11993576B2, “N-benzyl-N-arylsulfonamide derivative and preparation and use thereof” (Hangzhou Yirui Pharmaceutical Technology Co., Ltd, priority 2019, dated 2024).
pIC50: −log10 of the molar value.

Experiments:
[1] = biological target: human Kv1.3 (Homo sapiens, UniProt P22001); assay: IonWorks automated patch clamp assay of inhibitory activity against Kv1.3; type: cell-based; settings: automated patch clamp method; CHO-K1 cells stably expressing human Kv1.3
Method in brief: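 CHO-K1 cells stably expressing human Kv1.3, perforated-patch IonWorks Quattro (amphotericin B 200 μg/mL internal), external solution pH 7.3. Compounds 0.00384-30 μM final, 0.3% DMSO, 600 s incubation; four 1 s pulses to 0 mV from −80 mV. Inhibition from peak current ratio after/before compound.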

[2] = tested on: rat model of allergic contact dermatitis (ACD); assay: Rat model of allergic contact dermatitis (ACD model) induced by DNCB; type: in vivo; settings: SD female rats, 5%, 1.5%, 0.5% applied to right ear by wiping three times a day, 4 days, FIG. 1
Procedure: IV. Effects of Compound 37 on a Rat Model of Allergic Contact Dermatitis (ACD Model) 1. Laboratory Animal
SPF SD female rats with body weight of 130-150 g were used.
Dexamethasone (DXMS) sodium phosphate injection, 5 mg/ml/injection (Shiyao Yinhu Pharmaceutical Co., Ltd.); 1-chloro-2,4-dinitrobenzene (DNCB) (TCI Shanghai); vehicle and negative control: acetone/DMSO 9:1 (Vehicle, Model group).
3.1 The animals were randomly divided into 6 groups based on body weight with 10 animals per group: blank control group, model control group, positive control group (dexamethasone sodium phosphate injection 5 mg/mL), 5% Compound 37 group, 1.5% Compound 37 group and 0.5% Compound 37 group.
3.2 Modeling and administration: a rat model of allergic contact dermatitis (ACD) was established by sensitizing and stimulating the rat's skin with a DNCB solution in acetone and DMSO (acetone-DMSO 9:1). The rats were normally fed in a SPF barrier system for 1 week. Long hair was removed with a razor and short hair was removed with depilatory cream within an area of about 2 cm×2 cm from abdomen of the rats one day before the experiment. […]
3.3 Measurement of difference between ear thicknesses: before the stimulation and after the final administration, the thickness of central parts of left and right ears of the rats in each of the groups was measured with electronic digital calipers. […]

human Kv1.3, sequence (P22001 whole entry): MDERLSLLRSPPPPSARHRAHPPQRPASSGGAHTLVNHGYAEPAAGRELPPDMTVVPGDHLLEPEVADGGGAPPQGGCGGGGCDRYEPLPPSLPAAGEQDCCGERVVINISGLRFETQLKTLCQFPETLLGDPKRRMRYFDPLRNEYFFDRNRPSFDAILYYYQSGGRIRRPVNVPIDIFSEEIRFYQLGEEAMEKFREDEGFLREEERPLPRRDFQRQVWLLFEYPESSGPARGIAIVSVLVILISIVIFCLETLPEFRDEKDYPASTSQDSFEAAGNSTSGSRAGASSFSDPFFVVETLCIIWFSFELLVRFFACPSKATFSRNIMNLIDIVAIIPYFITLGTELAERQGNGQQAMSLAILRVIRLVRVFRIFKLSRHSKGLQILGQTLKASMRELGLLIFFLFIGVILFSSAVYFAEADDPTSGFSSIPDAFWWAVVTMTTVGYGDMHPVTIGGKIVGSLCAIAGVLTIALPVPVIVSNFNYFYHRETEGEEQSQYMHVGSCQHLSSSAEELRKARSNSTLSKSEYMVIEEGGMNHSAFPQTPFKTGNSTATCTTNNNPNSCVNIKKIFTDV

Q: Which results are given for `CC(C)CS(=O)(=O)N(Cc1ccc(F)cc1)c1ccc(N2CCN(C(=O)N(C)C)CC2)c(C#N)c1` [Compound 37, 4-(2-cyano-4-((N-(4-fluorobenzyl)-2-methylpropyl)sulfonamido)phenyl)-N,N-dimethylpiperazin-1-formamide]?
A: pIC50 [1]: 7.04; ear inflammation (difference between ear thicknesses) [2]: significantly reduced ear inflammation
